Tests used:
[1] = NRU cell viability assay, HeLa; type: cell-based, human; conditions: human, HeLa cells (epithelial carcinoma), highest tested concentration (250 µg/mL)
Experimental: (§1) The murine Swiss albino fibroblast (3T3), the immortal human keratinocyte (HaCaT), the squamous cell carcinoma (A431), the human epithelial carcinoma (HeLa) and the human breast adenocarcinoma (MCF-7) cell lines were sourced from Celltec UB (Barcelona, Spain). All cells were maintained and grown in DMEM medium (4.5 g/L glucose) supplemented with 10% (v/v) FBS, 2 mM L-glutamine, 100 U/mL penicillin and 100 μg/mL streptomycin at 37 °C, 5% CO2. Cells were routinely cultured in 75 cm^2 culture flasks and were trypsinized using trypsin-EDTA when the cells reached approximately 80%. Cell concentration in the resulting suspension was assessed using the trypan blue assay, which enables direct discrimination between viable (unstained) and non-viable (blue) cells.
(§2) T3 and HaCaT cells (1 × 10^5 cells/mL), along with A431, HeLa, and MCF-7 cells (5 × 10^4 cells/mL), were cultured at defined seeding densities in the 60 central wells of a 96-well plate. Cells were first incubated for 24 h under standard incubator conditions (5% CO2, 37 °C). After this period, the culture medium was removed, and the cells were incubated for an additional 24 h with their corresponding compound solutions (1 mg/mL) previously diluted in a minimum amount of DMF (dimethylformamide) and then in DMEM medium supplemented with 5% FBS (100 µL) at the required concentration range (20 to 250 µg/mL). Cell viability following exposure to the lactam derivatives was evaluated using two complementary assays: NRU and MTT.
(§3) The neutral red uptake (NRU) assay is based on the accumulation of dye in the lysosomes of viable cells. After the cells were incubated for 24 h with the corresponding systems, the medium was removed, and the solutions were incubated with the NR dye (Sigma-Aldrich, St. Louis, MO, USA) solution (50 µg/mL) dissolved in the medium, without FBS and without phenol red (Lonza, Verviers, Belgium), for 3 h. Cells were then washed with sterile PBS, followed by the addition of 100 µL of a solution containing 50% absolute ethanol and 1% acetic acid in distilled water to extract the dye. To promote the total dissolution of the dye, plates were placed in a microtiter-plate shaker for 5 min at room temperature. The absorbance of the resulting solutions was measured at 550 nm (Bio-Rad 550 microplate reader, Bio-Rad California, Hercules, CA, USA). Finally, the effect of each treatment was calculated as the percentage of dye uptake by viable cells relative to the control cells (cells without any treatment). Finally, the effect of each treatment was calculated as the percentage of dye retained by viable cells compared with untreated control cells.
(§4) The half-maximal inhibitory concentration (IC50) values for the different formulations, across cell lines and experimental endpoints, were obtained by fitting the concentration-dependent viability curves. […] These findings reflect the very low cytotoxicity of the compounds toward these cell lines.

[2] = NRU cell viability assay, MCF-7; type: cell-based, human; conditions: human, MCF-7 cells (breast adenocarcinoma), MCF-7, NRU, highest tested concentration (250 µg/mL)
Experimental: as §1, §2, §3, §4

In the case of `C[C@@H]1CN([C@@H](C)c2ccccc2)C(=O)C1(Cl)Cl` [Compound 3, (R)-3,3-dichloro-4-methyl-1-((S)-1-phenylethyl)pyrrolidin-2-one], the viability at 24 h, 250 µg/mL [1] is reported as 20 to 30% and the viability at 24 h, 250 µg/mL [2] is reported as 20 to 30%.
